Source: US4594347A, “Pyrrolo [3,2,1-ij]-quinoline carboxylic acid compound” (Otsuka Pharmaceutical Co. Limited, priority 1983, dated 1986)

Columns and labels:
[1] = system: Staphylococcus aureus FDA 209P; assay: Antimicrobial test in vitro (MIC, agar plate dilution method); type: cell-based; design: unit not given here; details: S. aureus FDA 209P
Experimental: (§1) The antimicrobial activities of the following test compounds were tested by measuring the minimum inhibitory concentration (MIC) by an agar plate dilution method [cf. Chemotherapy, 22, 1126-1128 (1974)]. The test microorganisms were used in a concentration of 1×10^8 cells/ml (optical dencity (O.D.) at 660 m: 0.07-0.16) and 1×10^6 cells/ml (dilution: 100 folds).
A: Staphylococcus aureus FDA 209P

[2] = system: Streptococcus pyogenes II D S-23; assay: as above; type: cell-based; design: unit not given here; details: S. pyogenes II D S-23
Experimental: as §1
B: Streptococcus pyogenes II D S-23

[3] = system: Escherichia coli NIHJ JC-2; assay: as above; type: cell-based; design: unit not given here; details: E. coli NIHJ JC-2
Experimental: as §1
C: Escherichia coli NIHJ JC-2

Escherichia coli No. 29 = assay: as above; type: cell-based; design: unit not given here; details: E. coli No. 29
Experimental: as §1
D: Escherichia coli No. 29

[4] = system: Klebsiella pneumoniae NCTC 9632; assay: as above; type: cell-based; design: unit not given here; details: K. pneumoniae NCTC 9632
Experimental: as §1
E: Klebsiella pneumoniae NCTC 9632

Proteus mirabilis 1287 = assay: as above; type: cell-based; design: unit not given here; details: P. mirabilis 1287
Experimental: as §1
F: Proteus mirabilis 1287

[5] = system: Proteus morganii II D Kono; assay: as above; type: cell-based; design: unit not given here; details: P. morganii II D Kono
Experimental: as §1
G: Proteus morganii II D Kono

[6] = system: Serratia marcescens IFO 12648; assay: as above; type: cell-based; design: unit not given here; details: S. marcescens IFO 12648
Experimental: as §1
H: Serratia marcescens IFO 12648

[7] = system: Acinetobacter calcoaceticus AC-54; assay: as above; type: cell-based; design: unit not given here; details: A. calcoaceticus AC-54
Experimental: as §1
I: Acinetobacter calcoaceticus AC-54

[8] = system: Pseudomonas aeruginosa ATCC 10145; assay: as above; type: cell-based; design: unit not given here; details: P. aeruginosa ATCC 10145
Experimental: as §1
J: Pseudomonas aeruginosa ATCC 10145

[9] = system: Pseudomonas aeruginosa E-2; assay: as above; type: cell-based; design: unit not given here; details: P. aeruginosa E-2
Experimental: as §1
K: Pseudomonas aeruginosa E-2

[10] = system: Pseudomonas aeruginosa E-2; assay: Therapeutic effects of compounds in urinary infectious diseases in vivo; design: species or system JCL:S.D. female rats; details: E2, 96 h, female S.D. rats, bladder infection, oral at 6, 24 and 48 hours, urine and kidney colonies after 4 days, Probit method, read-out: 50% effective dose (ED50)
Experimental: Pseudomonas aeruginosa E-2 was cultured in a nutrient medium at 37° C. for 18 hours and the culture broth thus obtained was diluted with the same medium to prepare a solution of the microorganism (cell concentration: 10^7 cells/ml). To the solution were dipped a UV-sterilized disc [glyceryl monomyristate (manufactured by Nikko Chemicals, Japan) and sodium cetylsulfurate (manufactured by Nikko Chemicals, Japan) in a weight ratio of 9:1; diameter: 2.0 mm, length: 3.0 mm] under ice-cooling for 1.5 hour to give a microorganism-containing disc for inoculation.
The above-prepared disc was surgically inserted into the bladder of JCL:S.D. female rats (one group: four rats) anaesthetized with secobarbital sodium. After the animals have been infected with the microorganism, i.e. 6 hours after the insertion of the disc, 1% oxamide-containing feed and water were administered to the animals. The oxamide-containing feed was changed to a normal feed after 24 hours. Test compounds 1, 7 and 8 as used in Test 1 (in the form of a 0.5% CMC suspension) were each orally administered to the animals in a dose of 16 mg/kg, 8.0 mg/kg, 4.0 mg/kg, 2.0 mg/kg, and 1.0 mg/kg at 6, 24 and 48 hours after the insertion of disc. After 4 days from the infection, urine was collected and further the kidney was taken out from the animals, and then the presence of microorganism was checked as to the collected urine and kidney. That is, 0.1 ml of the urine was applied onto an agar plate medium and cultured at 37° C. for 18 hours, and the number of colonies was counted. Besides, the taken out kidney was divided into two, and the plain section was contacted to an agar plate medium, and the medium was cultured likewise, and the number of colonies was counted, likewise. When the number of colonies was less than 10, it was evaluated as "effective," and when the number of colonies was more than 10, it was evaluated as "ineffective". […]

minimum inhibitory concentration (MIC) ([1]; 1×10^6 cells/ml) | minimum inhibitory concentration (MIC) ([1]; 1×10^8 cells/ml) | minimum inhibitory concentration (MIC) ([2]; 1×10^6 cells/ml) | minimum inhibitory concentration (MIC) ([2]; 1×10^8 cells/ml) | minimum inhibitory concentration (MIC) ([3]; 1×10^6 cells/ml) | minimum inhibitory concentration (MIC) ([3]; 1×10^8 cells/ml) | minimum inhibitory concentration (MIC) (Escherichia coli No. 29; 1×10^6 cells/ml) | minimum inhibitory concentration (MIC) (Escherichia coli No. 29; 1×10^8 cells/ml) | minimum inhibitory concentration (MIC) ([4]; 1×10^6 cells/ml) | minimum inhibitory concentration (MIC) ([4]; 1×10^8 cells/ml) | minimum inhibitory concentration (MIC) (Proteus mirabilis 1287; 1×10^6 cells/ml) | minimum inhibitory concentration (MIC) (Proteus mirabilis 1287; 1×10^8 cells/ml) | minimum inhibitory concentration (MIC) ([5]; 1×10^6 cells/ml) | minimum inhibitory concentration (MIC) ([5]; 1×10^8 cells/ml) | minimum inhibitory concentration (MIC) ([6]; 1×10^6 cells/ml) | minimum inhibitory concentration (MIC) ([6]; 1×10^8 cells/ml) | minimum inhibitory concentration (MIC) ([7]; 1×10^6 cells/ml) | minimum inhibitory concentration (MIC) ([7]; 1×10^8 cells/ml) | minimum inhibitory concentration (MIC) ([8]; 1×10^6 cells/ml) | minimum inhibitory concentration (MIC) ([8]; 1×10^8 cells/ml) | SMILES | also measured
0.2 | 0.39 | 12.5 | 12.5 | 0.2 | 0.2 | 0.2 | 0.39 | 0.39 | 0.39 | 0.78 | 1.56 | 0.39 | 0.39 | 0.78 | 0.78 | 0.78 | 1.56 | 3.13 | 6.25 | CC1Cc2c(N3CCOCC3)c(F)c(N)c3c(=O)c(C(=O)O)cn1c23 (stereo not shown) [Compound 3, 7-amino-8-fluoro-9-(4-morpholino)-2-methyl-6-oxo-1,2-dihydro-pyrrolo[3,2,1-ij]quinoline-5-carboxylic acid] | minimum inhibitory concentration (MIC) ([9]; 1×10^6 cells/ml): 6.25; minimum inhibitory concentration (MIC) ([9]; 1×10^8 cells/ml): 6.25
0.39 | 0.39 | 25 | 25 | 0.78 | 0.78 | 1.56 | 1.56 | 1.56 | 3.13 | 6.25 | 6.25 | 1.56 | 1.56 | 6.25 | 6.25 | 6.25 | 6.25 | 12.5 | 25 | CC1Cc2c(N3CCCCC3)c(F)c(N)c3c(=O)c(C(=O)O)cn1c23 (stereo not shown) [Compound 4, 7-amino-8-fluoro-2-methyl-6-oxo-9-(1-piperidyl)-1,2-dihydro-pyrrolo[3,2,1-ij]quinoline-5-carboxylic acid] | minimum inhibitory concentration (MIC) ([9]; 1×10^6 cells/ml): 25; minimum inhibitory concentration (MIC) ([9]; 1×10^8 cells/ml): 25
0.2 | 0.39 | 6.25 | 12.5 | 0.39 | 0.78 | 0.78 | 0.78 | 0.78 | 0.78 | 1.56 | 1.56 | 1.56 | 1.56 | 1.56 | 3.13 | 3.13 | 6.25 | 6.25 | 6.25 | CC1Cc2c(N3CCC(O)CC3)c(F)c(N)c3c(=O)c(C(=O)O)cn1c23 (stereo not shown) [Compound 5, 7-amino-8-fluoro-9-(4-hydroxy-1-piperidyl)-2-methyl-6-oxo-1,2-dihydro-pyrrolo[3,2,1-ij]quinoline-5-carboxylic acid] | minimum inhibitory concentration (MIC) ([9]; 1×10^6 cells/ml): 6.25; minimum inhibitory concentration (MIC) ([9]; 1×10^8 cells/ml): 12.5
0.39 | 0.78 | 6.25 | 12.5 | 0.78 | 1.56 | 1.56 | 1.56 | 1.56 | 6.25 | 6.25 | 6.25 | 6.25 | 6.25 | 6.25 | 6.25 | 6.25 | 6.25 | 6.25 | 12.5 | CC1Cc2c(N3CCCC3)c(F)c(N)c3c(=O)c(C(=O)O)cn1c23 (stereo not shown) [Compound 6, 7-amino-8-fluoro-2-methyl-6-oxo-9-(1-pyrrolidinyl)-1,2-dihydro-pyrrolo[3,2,1-ij]quinoline-5-carboxylic acid] | minimum inhibitory concentration (MIC) ([9]; 1×10^6 cells/ml): 1.56; minimum inhibitory concentration (MIC) ([9]; 1×10^8 cells/ml): 12.5
– | – | – | – | – | – | – | – | – | – | – | – | – | – | – | – | – | – | – | – | CC1Cc2c(N3CCN(C)CC3)c(F)cc3c(=O)c(C(=O)O)cn1c23 (stereo not shown) [Test compound 7, 8-fluoro-2-methyl-6-oxo-9-(4-methyl-1-piperazinyl)-1,2-dihydro-pyrrolo[3,2,1-ij]quinoline-5-carboxylic acid] | ED50 [10]: 6.15 mg/kg
– | – | – | – | – | – | – | – | – | – | – | – | – | – | – | – | – | – | – | – | CC1CCc2c(N3CCN(C)CC3)c(F)cc3c(=O)c(C(=O)O)cn1c23 (stereo not shown) [Test compound 8, 8-(4-methyl-1-piperazinyl)-9-fluoro-5-methyl-6,7-dihydro-1-oxo-1H,5H-benzo[ij]quinolidine-2-carboxylic acid] | ED50 [10]: 12 mg/kg

SMILES | minimum inhibitory concentration (MIC) ([1]; 1×10^6 cells/ml) | minimum inhibitory concentration (MIC) ([1]; 1×10^8 cells/ml) | minimum inhibitory concentration (MIC) ([2]; 1×10^6 cells/ml) | minimum inhibitory concentration (MIC) ([2]; 1×10^8 cells/ml) | minimum inhibitory concentration (MIC) ([3]; 1×10^6 cells/ml) | minimum inhibitory concentration (MIC) ([3]; 1×10^8 cells/ml) | minimum inhibitory concentration (MIC) (Escherichia coli No. 29; 1×10^6 cells/ml) | minimum inhibitory concentration (MIC) (Escherichia coli No. 29; 1×10^8 cells/ml) | minimum inhibitory concentration (MIC) ([4]; 1×10^6 cells/ml) | minimum inhibitory concentration (MIC) ([4]; 1×10^8 cells/ml) | minimum inhibitory concentration (MIC) (Proteus mirabilis 1287; 1×10^6 cells/ml) | minimum inhibitory concentration (MIC) (Proteus mirabilis 1287; 1×10^8 cells/ml) | minimum inhibitory concentration (MIC) ([5]; 1×10^6 cells/ml) | minimum inhibitory concentration (MIC) ([5]; 1×10^8 cells/ml) | minimum inhibitory concentration (MIC) ([6]; 1×10^6 cells/ml) | minimum inhibitory concentration (MIC) ([6]; 1×10^8 cells/ml) | minimum inhibitory concentration (MIC) ([7]; 1×10^6 cells/ml) | minimum inhibitory concentration (MIC) ([7]; 1×10^8 cells/ml) | minimum inhibitory concentration (MIC) ([8]; 1×10^6 cells/ml) | minimum inhibitory concentration (MIC) ([8]; 1×10^8 cells/ml) | also measured
CC1Cc2c(N3CCNCC3)c(F)c(N)c3c(=O)c(C(=O)O)cn1c23 (stereo not shown) [Compound 2, 8-fluoro-2-methyl-9-(1-piperazinyl)-7-amino-6-oxo-1,2-dihydro-pyrrolo[3,2,1-ij]quinoline-5-carboxylic acid] | 0.39 | 0.78 | 3.13 | 6.25 | 0.1 | 0.1 | 0.1 | 0.1 | 0.1 | 0.2 | 0.2 | 0.2 | 0.2 | 0.39 | 0.2 | 0.2 | 0.78 | 3.13 | 0.39 | 0.39 | minimum inhibitory concentration (MIC) ([9]; 1×10^6 cells/ml): 0.39; minimum inhibitory concentration (MIC) ([9]; 1×10^8 cells/ml): 0.39
